Assay results from patent US11066414B2, “Cot modulators and methods of use thereof” (Gilead Sciences, Inc., priority 2015, dated 2021).

These molecules were tested against Human Cot (Homo sapiens (Human), UniProt P41279) (assay: High Throughput Cot Biochemical Assay). Conditions: IC50 HTRF, Cot HTRF (TR-FRET) biochemical assay.
Chain of Human Cot (P41279 30-397): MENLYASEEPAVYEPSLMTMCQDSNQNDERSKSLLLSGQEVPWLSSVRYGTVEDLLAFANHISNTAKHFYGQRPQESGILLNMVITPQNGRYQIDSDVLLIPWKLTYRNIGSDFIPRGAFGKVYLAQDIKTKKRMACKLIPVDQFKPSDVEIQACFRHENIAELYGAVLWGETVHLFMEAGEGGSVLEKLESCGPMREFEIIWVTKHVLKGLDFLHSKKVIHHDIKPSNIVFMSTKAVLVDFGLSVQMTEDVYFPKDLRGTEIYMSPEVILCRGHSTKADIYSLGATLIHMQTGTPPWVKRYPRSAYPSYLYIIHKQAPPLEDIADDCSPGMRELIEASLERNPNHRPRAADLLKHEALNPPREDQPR

SMILES	IC50
CC(C)(C)CNc1c(C#N)cnc2c(C#N)cc(N[C@H](c3cn(C4(C(F)(F)F)CC4)nn3)c3cccc4ncsc34)cc12 [Example 66, (S)-6-((benzo[d]thiazol-7-yl(1-(1-(trifluoromethyl)cyclopropyl)-1H-1,2,3-triazol-4-yl)methyl)amino)-4-(neopentylamino)quinoline-3,8-dicarbonitrile]	3 nM
CC(C)(C)CNc1c(C#N)cnc2c(Cl)cc(N[C@H](c3cn(C4CC4)nn3)c3csc4c3CCN(C3COC3)C4)cc12 [Example 80, (S)-8-chloro-6-(((1-cyclopropyl-1H-1,2,3-triazol-4-yl)(6-(oxetan-3-yl)-4,5,6,7-tetrahydrothieno[2,3-c]pyridin-3-yl)methyl)amino)-4-(neopentylamino)-quinoline-3-carbonitrile]	1 nM
[2H]C([2H])(Nc1c(C#N)cnc2c(Cl)cc(N[C@@]([2H])(c3ccc(F)nc3)c3cn(C4CC4)nn3)cc12)C(C)(C)C [Example 112, (S)-8-chloro-6-(((1-cyclopropyl-1H-1,2,3-triazol-4-yl)(6-fluoropyridin-3-yl)methyl-d)amino)-4-((2,2-dimethylpropyl-1,1-d2)amino)quinoline-3-carbonitrile]	2 nM
CCN1CCc2c([C@H](Nc3cc(Cl)c4ncc(C#N)c(Nc5ccc(F)c(Cl)c5)c4c3)c3c[nH]nn3)csc2C1 [Example 270, (S)-8-chloro-4-((3-chloro-4-fluoro-phenyl)amino)-6-(((6-ethyl-4,5,6,7-tetrahydrothieno[2,3-c]pyridin-3-yl)(1H-1,2,3-triazol-4-yl)methyl)-amino)quinoline-3-carbonitrile]	4 nM

Second part, the molecule after the results:

IC50	SMILES
2 nM	[2H]C(Nc1cc(Cl)c2ncc(C#N)c(NCC(C)(C)C)c2c1)(c1cn(C2CC2)nn1)c1ccc(F)nc1C (stereo not drawn) [Example 111, 8-chloro-6-(((1-cyclopropyl-1H-1,2,3-triazol-4-yl)(6-fluoro-2-methylpyridin-3-yl)methyl-d)amino)-4-(neopentylamino)quinoline-3-carbonitrile]
3 nM	Cc1ncccc1[C@H](Nc1cc(Cl)c2ncc(C#N)c(Nc3ccc(F)c(Cl)c3)c2c1)c1cn(C(C)C)nn1 [Example 282, (S)-8-chloro-4-((3-chloro-4-fluorophenyl)amino)-6-(((1-isopropyl-1H-1,2,3-triazol-4-yl)(2-methylpyridin-3-yl)methyl)amino)-quinoline-3-carboni trile]

Same assay, conditions: read-out: IC50 HTRF; Cot HTRF (TR-FRET) biochemical assay

IC50	SMILES
20 nM	CC(C)(C)N1CCC(n2cc([C@@H](Nc3cc(Cl)c4ncc(C#N)c(NC5CCCCC5)c4c3)c3cccnc3)nn2)CC1 [Example 287, (S)-6-(((1-(1-(tert-butyl)piperidin-4-yl)-1H-1,2,3-triazol-4-yl)(pyridin-3-yl)methyl)amino)-8-chloro-4-(cyclohexylamino)quinoline-3-carbonitrile]

The molecules below were run on TNFα (assay: Cot Monocyte TNFα Cell Based Assay). Conditions: Homo sapiens, Monocyte, read-out: EC50 TNF, LPS-stimulated human monocytes, TNFα.

EC50	SMILES
130 nM	Cc1nc(Cl)ccc1[C@H](Nc1cc(Cl)c2ncc(C#N)c(NCC(C)(C)C)c2c1)c1cn(C2(C(F)(F)F)CC2)nn1 [Example 794, (S)-8-chloro-6-(((6-chloro-2-methylpyridin-3-yl)(1-(1-(trifluoromethyl)-cyclopropyl)-1H-1,2,3-triazol-4-yl)methyl)amino)-4-(neopentylamino)quinoline-3-carbonitrile]
530 nM	Cc1ccc([C@H](Nc2cc(Cl)c3ncc(C#N)c(NCC(C)(C)C)c3c2)c2cn(C3(C(F)(F)F)CC3)nn2)cn1 [Example 795, (S)-8-chloro-6-(((6-methylpyridin-3-yl)(1-(1-(trifluoromethyl)cyclopropyl)-1H-1,2,3-triazol-4-yl)methyl)amino)-4-(neopentylamino)quinoline-3-carbonitrile]

Same assay, conditions: Homo sapiens, Monocyte, read-out: EC50 TNF, LPS-stimulated human monocytes, TNFα TR-FRET

SMILES	EC50
Cn1cccc([C@H](Nc2cc(C#N)c3ncc(C#N)c(NCC(C)(C)C)c3c2)c2cn(C3(C(F)(F)F)CC3)nn2)c1=O [Example 844, (S)-6-(((1-methyl-2-oxo-1,2-dihydropyridin-3-yl)(1-(1-(trifluoromethyl)cyclopropyl)-1H-1,2,3-triazol-4-yl)methyl)amino)-4-(neopentylamino)quinoline-3,8-dicarbonitrile]	417 nM
Cc1nc(F)ccc1[C@H](Nc1cc(C#N)c2ncc(C#N)c(NCC(C)(C)C(F)(F)F)c2c1)c1nnn(C2(C3CC3)CC2)c1F [Example 862, (S)-6-(((1-([1,1′-bi(cyclopropan)]-1-yl)-5-fluoro-1H-1,2,3-triazol-4-yl)(6-fluoro-2-methylpyridin-3-yl)methyl)amino)-4-((3,3,3-trifluoro-2,2-dimethylpropyl)amino)quinoline-3,8-dicarbonitrile]	49 nM
Cc1ncsc1[C@H](Nc1cc(C#N)c2ncc(C#N)c(NCC(C)(C)C)c2c1)c1cn(C2(C3CC3)CC2)nn1 [Example 903, (R)-6-(((1-([1,1′-bi(cyclopropan)]-1-yl)-1H-1,2,3-triazol-4-yl)(4-methylthiazol-5-yl)methyl)amino)-4-(neopentylamino)quinoline-3,8-dicarbonitrile]	36 nM
COc1ccc([C@H](Nc2cc(C#N)c3ncc(C#N)c(NCC(C)(C)C)c3c2)c2cn(C3(C(F)(F)F)CC3)nn2)cn1 [Example 905, (S)-6-(((6-methoxypyridin-3-yl)(1-(1-(trifluoromethyl)cyclopropyl)-1H-1,2,3-triazol-4-yl)methyl)amino)-4-(neopentylamino)quinoline-3,8-dicarbonitrile]	212 nM
COc1c(C(Nc2cc(C#N)c3ncc(C#N)c(NCC(C)(C)C)c3c2)c2ccc(F)nc2C)nnn1C (stereo not drawn) [Example 908, 6-(((6-fluoro-2-methylpyridin-3-yl)(5-methoxy-1-methyl-1H-1,2,3-triazol-4-yl)methyl)amino)-4-(neopentyl-amino)quinoline-3,8-dicarbonitrile]	238 nM
COc1ccc([C@H](Nc2cc(Cl)c3ncc(C#N)c(NCC(C)(C)C)c3c2)c2nnn(C3(C(F)F)CC3)c2OC)c(C)n1 [Example 966, (S)-8-chloro-6-(((1-(1-(difluoromethyl)cyclopropyl)-5-methoxy-1H-1,2,3-triazol-4-yl)(6-methoxy-2-methylpyridin-3-yl)methyl)amino)-4-(neopentylamino)quinoline-3-carbonitrile]	191 nM
COc1ccc(C(Nc2cc(Cl)c3ncc(C#N)c(NCC(C)(C)C)c3c2)c2nnn(C)c2OC)c(C)n1 (stereo not drawn) [Example 970, 8-chloro-6-(((5-methoxy-1-methyl-1H-1,2,3-triazol-4-yl)(6-methoxy-2-methylpyridin-3-yl)methyl)amino)-4-(neopentylamino)quinoline-3-carbonitrile]	722 nM

Continued, values first:

EC50	SMILES
116 nM	CC(C)(C)CNc1c(C#N)cnc2c(C#N)cc(N[C@H](c3cn(C4(C(F)(F)F)CC4)nn3)c3cccc4c(C#N)nccc34)cc12 [Example 817, (S)-6-(((1-cyanoisoquinolin-5-yl)(1-(1-(trifluoromethyl)cyclopropyl)-1H-1,2,3-triazol-4-yl)methyl)amino)-4-(neopentylamino)quinoline-3,8-dicarbonitrile]
41 nM	CC1(n2cc([C@@H](Nc3cc(C#N)c4ncc(C#N)c(NCC(C)(C)C(F)(F)F)c4c3)c3cccc4ncccc34)nn2)CC1 [Example 895, (S)-6-(((1-(1-methylcyclopropyl)-1H-1,2,3-triazol-4-yl)(quinolin-5-yl)methyl)amino)-4-((3,3,3-trifluoro-2,2-dimethylpropyl)amino)quinoline-3,8-dicarbonitrile]
269 nM	CC(C)(C)CNc1c(C#N)cnc2c(Cl)cc(N[C@H](c3cn(C4(C(F)(F)F)CC4)nn3)c3cccc4c(Cl)nccc34)cc12 [Example 916, (S)-8-chloro-6-(((1-chloroisoquinolin-5-yl)(1-(1-(trifluoromethyl)cyclopropyl)-1H-1,2,3-triazol-4-yl)methyl)amino)-4-(neopentylamino)quinoline-3-carbonitrile]
135 nM	CC(C)(C)CNc1c(C#N)cnc2c(Cl)cc(N[C@H](c3nnn(C4(C(F)F)CC4)c3F)c3cccc4ncccc34)cc12 [Example 962, (S)-8-chloro-6-(((1-(1-(difluoromethyl)cyclopropyl)-5-fluoro-1H-1,2,3-triazol-4-yl)(quinolin-5-yl)methyl)amino)-4-(neopentylamino)quinoline-3-carbonitrile]

Same assay, conditions: read-out: EC50 TNF; LPS-stimulated human monocytes, TNFα TR-FRET

EC50	SMILES
99 nM	COc1nccc2c([C@H](Nc3cc(Cl)c4ncc(C#N)c(NCC(C)(C)C(F)(F)F)c4c3)c3cn(C45CC(C4)C5)nn3)cccc12 [Example 928, (S)-6-(((1-(bicyclo[1.1.1]pentan-1-yl)-1H-1,2,3-triazol-4-yl)(1-methoxylsoquinolin-5-yl)methyl)amino)-8-chloro-4-((3,3,3-trifluoro-2,2-dimethylpropyl)amino)quinoline-3-carbonitrile]
205 nM	COc1nccc2c([C@H](Nc3cc(Cl)c4ncc(C#N)c(NCC(C)(C)C)c4c3)c3cn([C@@H](C)CF)nn3)cccc12 [Example 932, 8-chloro-6-(((S)-(1-((S)-1-fluoropropan-2-yl)-1H-1,2,3-triazol-4-yl)(1-methoxylsoquinolin-5-yl)methyl)amino)-4-(neopentylamino)quinoline-3-carbonitrile]
48 nM	Cn1ccc2c([C@H](Nc3cc(Cl)c4ncc(C#N)c(NCC(C)(C)C)c4c3)c3nnn(C45CC(C4)C5)c3F)cccc2c1=O [Example 961, (S)-6-(((1-(bicyclo[111]pentan-1-yl)-5-fluoro-1H-1,2,3-triazol-4-yl)(2-methyl-1-oxo-1,2-dihydroisoquinolin-5-yl)methyl)amino)-8-chloro-4-(neopentylamino)quinoline-3-carbonitrile]
126 nM	Cc1nc(F)ccc1[C@H](Nc1cc(Cl)c2ncc(C#N)c(NCC(C)(C)C)c2c1)c1nnn2c1OCCC2 [Example 985, (S)-8-chloro-6-(((6,7-dihydro-5H-[1,2,3]triazolo[5,l-b][1,3]oxazin-3-yl)(6-fluoro-2-methylpyridin-3-yl)methyl)amino)-4-(neopentylamino)quinoline-3-carbonitrile]
